Assays:
wild-type EGFR = target: T1, wild-type EGFR (Homo sapiens, UniProt P00533); experiment: Enzymology experiment in vitro (HTRF/FRET kinase activity), wild-type EGFR; format: biochemical; details: HTRF KinEASE-TK, read-out: EGFR (WT) IC50
T1 construct: purchased Signalchem
Protocol: (§1) 1. Experimental Materials
(§2) HTRF KinEASE-TK kit detection reagent, purchased from Cisbio
(§3) 1) 10 nL of gradient diluted compound was transferred into a 384-well experimental plate using Echo 550 (Labcyte).
(§4) 2) 5 μL of 2×EGFR enzyme solution was added to the 384-well experimental plate and incubated at room temperature for 10 minutes.
(§5) 3) 5 μL of 2× substrate solution containing polypeptide and ATP was added to the 384-well experimental plate and incubated at room temperature for 40 minutes.
(§6) 4) 10 μL of detection solution containing EDTA, XL665-labeled streptavidin and Eu^3+-labeled antibody was added thereto and incubated at room temperature for 1 hour.

[1] = target: Ba/F3 De119/T790M/C797S EGFR triple mutant cell line (Homo sapiens, UniProt P00533, T790M/C797S, cells depend on it, form not given); experiment: Cell proliferation inhibition experiment (CellTiter-Glo), Ba/F3 De119/T790M/C797S; format: cell-based; details: Ba/F3 Del19/T790M/C797S EGFR triple mutant cells, 72 hours, Cell Titer-Glo; read-out: Ba/F3 (Del19/T790M/C797S) IC50
Ba/F3 De119/T790M/C797S EGFR triple mutant cell line, sequence (P00533 with tags, fused parts or gaps DEL746-750/T790M/C797S, form open): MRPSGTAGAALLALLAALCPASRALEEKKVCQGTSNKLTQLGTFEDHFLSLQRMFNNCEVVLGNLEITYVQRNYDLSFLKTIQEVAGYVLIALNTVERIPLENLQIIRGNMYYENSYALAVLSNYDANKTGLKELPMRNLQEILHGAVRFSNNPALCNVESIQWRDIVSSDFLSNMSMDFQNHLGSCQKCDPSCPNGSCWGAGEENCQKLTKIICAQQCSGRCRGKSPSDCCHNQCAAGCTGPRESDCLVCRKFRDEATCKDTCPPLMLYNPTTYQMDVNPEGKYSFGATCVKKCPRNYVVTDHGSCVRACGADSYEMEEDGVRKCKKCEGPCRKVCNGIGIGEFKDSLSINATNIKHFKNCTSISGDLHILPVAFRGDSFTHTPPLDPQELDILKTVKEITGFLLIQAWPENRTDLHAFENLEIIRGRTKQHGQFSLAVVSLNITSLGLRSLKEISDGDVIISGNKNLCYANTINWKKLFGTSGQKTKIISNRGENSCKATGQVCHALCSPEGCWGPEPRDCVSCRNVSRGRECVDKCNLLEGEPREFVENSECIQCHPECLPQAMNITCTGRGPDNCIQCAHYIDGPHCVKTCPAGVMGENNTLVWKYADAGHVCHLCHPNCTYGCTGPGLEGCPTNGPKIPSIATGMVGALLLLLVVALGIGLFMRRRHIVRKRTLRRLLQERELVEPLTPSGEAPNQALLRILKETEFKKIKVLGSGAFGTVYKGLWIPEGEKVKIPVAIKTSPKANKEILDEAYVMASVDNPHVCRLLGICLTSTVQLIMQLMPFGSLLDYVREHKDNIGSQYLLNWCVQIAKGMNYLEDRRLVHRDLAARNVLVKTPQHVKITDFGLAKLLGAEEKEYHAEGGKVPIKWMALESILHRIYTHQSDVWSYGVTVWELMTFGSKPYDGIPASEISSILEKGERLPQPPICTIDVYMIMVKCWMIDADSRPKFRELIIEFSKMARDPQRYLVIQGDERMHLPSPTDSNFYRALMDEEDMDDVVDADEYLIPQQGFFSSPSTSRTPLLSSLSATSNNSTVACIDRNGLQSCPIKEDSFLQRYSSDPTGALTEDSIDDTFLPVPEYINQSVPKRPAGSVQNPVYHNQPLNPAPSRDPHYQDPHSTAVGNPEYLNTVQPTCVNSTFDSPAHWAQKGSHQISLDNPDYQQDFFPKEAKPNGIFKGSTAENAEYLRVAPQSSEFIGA

[2] = tested on: EGFR wild-type cell line A431; experiment: Cell proliferation inhibition experiment (CellTiter-Glo), A431; format: cell-based; details: Homo sapiens, A-431, 72 h, A431 cells, Cell Titer-Glo, read-out: A431 EGFR WT IC50
Procedure, shortened: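 Luminescent CellTiter-Glo readout, 30 min at room temperature, after 72 h compound exposure at 37° C., 5% CO2 with 0.1% DMSO final. EGFR wild-type A431 cells were seeded at 800 per well and grown 24 h before dosing. IC50 derived from the dose-response.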

[3] = target: Ba/F3 L858R/T790M/C797S EGFR triple mutant cell line (Homo sapiens, UniProt P00533, T790M/C797S/L858R, cells depend on it); experiment: Cell proliferation inhibition experiment (CellTiter-Glo), Ba/F3 L858R/T790M/C797S; format: cell-based; details: 72 hours, Cell Titer-Glo, read-out: Ba/F3 (L858R/T790M/C797S) IC50
Ba/F3 L858R/T790M/C797S EGFR triple mutant cell line, sequence (P00533 whole entry T790M/C797S/L858R): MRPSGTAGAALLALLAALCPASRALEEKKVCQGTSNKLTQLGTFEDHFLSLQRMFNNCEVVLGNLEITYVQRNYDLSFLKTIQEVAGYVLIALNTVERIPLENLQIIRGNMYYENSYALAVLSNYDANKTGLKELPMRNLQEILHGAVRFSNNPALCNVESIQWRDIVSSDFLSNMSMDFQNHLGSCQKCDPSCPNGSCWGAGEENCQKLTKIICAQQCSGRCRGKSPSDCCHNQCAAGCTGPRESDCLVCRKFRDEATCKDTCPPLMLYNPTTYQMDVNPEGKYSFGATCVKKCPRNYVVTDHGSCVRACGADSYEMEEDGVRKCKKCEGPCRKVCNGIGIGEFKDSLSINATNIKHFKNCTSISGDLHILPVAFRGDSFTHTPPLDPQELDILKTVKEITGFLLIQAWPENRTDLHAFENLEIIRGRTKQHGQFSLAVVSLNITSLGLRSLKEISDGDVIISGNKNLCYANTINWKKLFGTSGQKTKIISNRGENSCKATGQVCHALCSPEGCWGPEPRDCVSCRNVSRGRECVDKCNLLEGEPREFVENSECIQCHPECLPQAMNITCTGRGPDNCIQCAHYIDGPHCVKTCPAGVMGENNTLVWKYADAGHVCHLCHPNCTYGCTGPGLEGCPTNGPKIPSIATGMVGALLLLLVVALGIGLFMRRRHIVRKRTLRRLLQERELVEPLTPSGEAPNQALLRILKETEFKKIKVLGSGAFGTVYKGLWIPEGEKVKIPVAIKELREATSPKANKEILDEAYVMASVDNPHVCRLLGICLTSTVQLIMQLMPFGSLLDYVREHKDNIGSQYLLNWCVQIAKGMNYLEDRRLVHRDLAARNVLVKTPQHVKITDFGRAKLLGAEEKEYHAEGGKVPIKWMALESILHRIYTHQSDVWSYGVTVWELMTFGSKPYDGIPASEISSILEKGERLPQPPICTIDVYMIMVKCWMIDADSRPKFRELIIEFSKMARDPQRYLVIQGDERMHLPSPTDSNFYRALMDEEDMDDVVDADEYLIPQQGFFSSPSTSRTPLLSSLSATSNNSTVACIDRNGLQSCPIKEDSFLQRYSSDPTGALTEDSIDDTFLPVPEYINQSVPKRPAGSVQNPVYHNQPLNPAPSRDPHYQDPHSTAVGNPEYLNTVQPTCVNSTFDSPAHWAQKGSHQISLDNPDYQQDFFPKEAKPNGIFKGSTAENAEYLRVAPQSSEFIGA

[4] = target: T2, L858R/T790M/C797S triple mutant EGFR (Homo sapiens, UniProt P00533, C797S/L858R/T790M); experiment: Enzymology experiment in vitro (HTRF/FRET kinase activity), L858R/T790M/C797S triple mutant EGFR; format: biochemical; details: HTRF KinEASE-TK, read-out: EGFR (L858R/T790M/C797S) IC50
T2 construct: purchased Signalchem
T2 sequence (P00533 25-1210 T790M/C797S/L858R): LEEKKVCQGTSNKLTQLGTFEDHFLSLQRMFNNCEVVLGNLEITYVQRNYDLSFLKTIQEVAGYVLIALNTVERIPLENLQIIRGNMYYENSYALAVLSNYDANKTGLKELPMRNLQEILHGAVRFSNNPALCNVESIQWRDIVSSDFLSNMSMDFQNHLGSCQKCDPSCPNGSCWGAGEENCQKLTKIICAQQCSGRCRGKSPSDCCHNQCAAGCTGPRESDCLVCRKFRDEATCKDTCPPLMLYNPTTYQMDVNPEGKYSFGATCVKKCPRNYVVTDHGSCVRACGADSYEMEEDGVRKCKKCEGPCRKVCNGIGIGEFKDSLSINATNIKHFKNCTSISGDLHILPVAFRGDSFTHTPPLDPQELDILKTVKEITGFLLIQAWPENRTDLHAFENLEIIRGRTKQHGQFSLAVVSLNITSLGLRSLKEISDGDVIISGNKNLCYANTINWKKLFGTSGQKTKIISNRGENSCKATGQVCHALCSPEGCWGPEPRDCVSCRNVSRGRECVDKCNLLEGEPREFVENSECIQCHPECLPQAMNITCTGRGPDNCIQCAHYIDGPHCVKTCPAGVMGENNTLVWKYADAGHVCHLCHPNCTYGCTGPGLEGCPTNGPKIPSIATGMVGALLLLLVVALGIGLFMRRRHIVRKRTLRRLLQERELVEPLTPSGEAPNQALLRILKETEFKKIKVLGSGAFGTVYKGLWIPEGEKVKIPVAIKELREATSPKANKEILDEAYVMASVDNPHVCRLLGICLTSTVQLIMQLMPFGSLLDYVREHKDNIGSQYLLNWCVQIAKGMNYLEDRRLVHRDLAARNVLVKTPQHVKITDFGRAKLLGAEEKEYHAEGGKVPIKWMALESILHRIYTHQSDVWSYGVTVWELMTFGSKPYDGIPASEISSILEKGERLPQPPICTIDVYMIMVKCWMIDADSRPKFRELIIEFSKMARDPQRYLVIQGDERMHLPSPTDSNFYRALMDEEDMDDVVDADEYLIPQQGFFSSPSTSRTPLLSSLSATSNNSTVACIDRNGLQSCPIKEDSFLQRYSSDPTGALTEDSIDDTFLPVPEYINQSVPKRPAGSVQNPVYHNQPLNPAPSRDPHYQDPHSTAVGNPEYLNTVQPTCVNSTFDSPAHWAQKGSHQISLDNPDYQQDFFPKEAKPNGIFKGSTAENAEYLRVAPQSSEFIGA
Protocol: as §1, §2, §3, §4, §5, §6

T1 sequence (P00533 25-1210): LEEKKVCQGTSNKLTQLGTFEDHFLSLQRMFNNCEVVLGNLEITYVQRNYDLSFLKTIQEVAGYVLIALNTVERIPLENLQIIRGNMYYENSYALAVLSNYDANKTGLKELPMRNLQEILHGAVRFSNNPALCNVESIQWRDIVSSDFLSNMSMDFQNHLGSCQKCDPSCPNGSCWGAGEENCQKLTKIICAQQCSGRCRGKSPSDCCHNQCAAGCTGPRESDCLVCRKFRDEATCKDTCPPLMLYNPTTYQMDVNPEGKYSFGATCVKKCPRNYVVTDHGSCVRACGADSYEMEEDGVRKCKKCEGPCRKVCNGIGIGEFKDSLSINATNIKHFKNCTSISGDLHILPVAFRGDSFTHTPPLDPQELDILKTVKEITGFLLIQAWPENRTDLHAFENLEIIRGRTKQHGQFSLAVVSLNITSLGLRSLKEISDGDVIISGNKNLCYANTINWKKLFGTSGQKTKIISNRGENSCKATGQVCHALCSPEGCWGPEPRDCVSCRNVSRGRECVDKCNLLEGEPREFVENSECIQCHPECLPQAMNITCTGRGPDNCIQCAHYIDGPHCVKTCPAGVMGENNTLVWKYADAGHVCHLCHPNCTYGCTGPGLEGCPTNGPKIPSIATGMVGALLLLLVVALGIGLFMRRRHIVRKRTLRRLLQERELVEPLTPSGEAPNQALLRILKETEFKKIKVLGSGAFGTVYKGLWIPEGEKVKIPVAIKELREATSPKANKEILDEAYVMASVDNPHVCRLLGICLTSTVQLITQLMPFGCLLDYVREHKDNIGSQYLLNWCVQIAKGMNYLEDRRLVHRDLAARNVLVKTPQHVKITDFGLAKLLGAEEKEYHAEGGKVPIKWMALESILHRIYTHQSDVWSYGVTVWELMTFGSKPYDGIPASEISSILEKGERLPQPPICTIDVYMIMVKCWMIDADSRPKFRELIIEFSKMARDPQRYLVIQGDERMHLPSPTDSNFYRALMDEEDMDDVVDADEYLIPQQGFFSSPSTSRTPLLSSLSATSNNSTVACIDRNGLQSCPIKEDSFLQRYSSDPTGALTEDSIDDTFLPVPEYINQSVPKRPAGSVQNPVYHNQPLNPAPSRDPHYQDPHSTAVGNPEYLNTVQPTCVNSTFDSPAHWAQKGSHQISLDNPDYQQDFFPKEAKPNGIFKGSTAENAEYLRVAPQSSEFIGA

SMILES	IC50 (wild-type EGFR) [nM]	GI50 [1] [nM]	IC50 [2] [nM]	GI50 [3] [nM]	IC50 [4] [nM]
COc1cc(N2CCC(N3CC[C@H](OC)[C@H](F)C3)CC2)c(-c2cnn(C)c2)cc1Nc1ncc(Br)c(Nc2ccc3nccnc3c2P(C)(C)=O)n1 [compound 185]	2.42	1.77	127	4.02	0.36
[2H]C([2H])([2H])OCCN1CCN(c2cc(OC)c(Nc3ncc(Br)c(Nc4ccc5nccnc5c4P(C)(C)=O)n3)cc2-c2cnn(C)c2)CC1 [compound 181]	3.53	3.52	88.9	9.67	0.16
COc1cc(N2CCN(C(C)C)C(CF)C2)c(-c2cnn(C)c2)cc1Nc1ncc(Br)c(Nc2ccc3nccnc3c2P(C)(C)=O)n1 (centres unmarked) [compound 164]	5.3	3.22	195	8.26	0.73
COC[C@H]1CN(c2cc(OC)c(Nc3ncc(Br)c(Nc4ccc5nccnc5c4P(C)(C)=O)n3)cc2-c2cnn(C)c2)CCO1 [compound 152]	4.24	1.06	133	4.59	0.35
COc1cc(N2CCC(N3CCOC(C)C3)CC2)c(-c2cnn(C)c2)cc1Nc1ncc(Br)c(Nc2ccc3nccnc3c2P(C)(C)=O)n1 (racemic) [compound 148, (6-((5-bromo-2-((2-methoxy-5-(1-methyl-1H-pyrazol-4-yl)-4-(4-(2-methylmorpholinyl)piperidin-1-yl)phenyl)amino)pyrimidin-4-yl)amino)quinoxalin-5-yl)dimethylphosphine oxide]	5.04	0.7	124	2.78	0.64
COc1cc(N2CCN(C(=O)C3CC3)CC2)c(-c2cnn(C)c2)cc1Nc1ncc(Br)c(Nc2ccc3nccnc3c2P(C)(C)=O)n1 [compound 116]	3.13	2.25	169	8.15	1.31
COc1ccc(-n2cccn2)cc1Nc1ncc(Br)c(Nc2ccc3nccnc3c2P(C)(C)=O)n1 [compound 20]	179	277	1590	629	9.21
COc1cc(N2CCN(C3CC3)CC2)c(-c2cnn(C)c2)cc1Nc1ncc(Br)c(Nc2ccc3nccnc3c2P(C)(C)=O)n1 [compound 102]	1.49	0.76	108	2.02	0.23
COc1cc(N2CCC(N3CC(C)OC(C)C3)CC2)c(-c2cnn(C)c2)cc1Nc1ncc(Br)c(Nc2ccc3nccnc3c2P(C)(C)=O)n1 (racemic) [compound 174]	2.39	4.63	307	7.85	0.6
COc1cc(N2CC[C@H](OC)[C@H](F)C2)c(-c2cnn(C)c2)cc1Nc1ncc(Br)c(Nc2ccc3nccnc3c2P(C)(C)=O)n1 [compound 187]	5.73	2.11	245	8.73	0.04
COc1cc(N2CCC3(CC2)CN(C)CCO3)c(-c2cnn(C)c2)cc1Nc1ncc(Br)c(Nc2cc3c(cc2N(C)S(C)(=O)=O)CC3)n1 [compound 195]	8.52	7.7	415	12.5	2.33
COc1cc(N2CCOC(COC(C)C)C2)c(-c2cnn(C)c2)cc1Nc1ncc(Br)c(Nc2ccc3nccnc3c2P(C)(C)=O)n1 (centres unmarked) [compound 182]	8.49	1.71	101	4.43	0.4
COc1cc(N2CCC(N3CCN(C)CC3)C(F)C2)c(-c2cnn(C)c2)cc1Nc1ncc(Br)c(Nc2ccccc2N(C)S(=O)(=O)C2CC2)n1 (centres unmarked) [compound 211]	10.9	14.3	354	24.8	0.61
COc1cc(N2CCC(N3CC(CF)C3)CC2)c(-c2cnn(C)c2)cc1Nc1ncc(Br)c(Nc2ccc3nccnc3c2P(C)(C)=O)n1 [compound 204]	1.57	5.19	66.9	11.2	0.25
COc1cc(N2CCOCC2)c(-c2cnn(C)c2)cc1Nc1ncc(Br)c(Nc2ccc3c(c2P(C)(C)=O)CC3)n1 [compound 85]	9.06	6.15	381	9.29	0.11
COc1cc(N2CCOCC2)c(-c2cnn(C)c2)cc1Nc1ncc(Cl)c(Nc2ccc3nccnc3c2P(C)(C)=O)n1 [compound 72]	4.69	4.54	370	13.5	0.2
COc1cc(N2CCOCC2)c(-c2ccn(C)n2)cc1Nc1ncc(Br)c(Nc2ccc3nccnc3c2P(C)(C)=O)n1 [compound 140]	94.6	29.8	3670	62	5.44
Cn1cc(-c2cc(Nc3ncc(Br)c(Nc4ccc5nccnc5c4P(C)(C)=O)n3)c3c(c2N2CCOCC2)CCO3)cn1 [Compound 17, (6-((5-bromo-2-((5-(1-methyl-1H-pyrazol-4-yl)-4-morpholino-2,3-dihydrobenzofuran-7-yl)amino)pyrimidin-4-yl)amino)quinoxalin-5-yl)dimethylphosphine oxide]	3.61	1.28	67.8	2.13	0.08
COc1cc(N(C)CCN(C)C)c(-c2cnn(C)c2)cc1Nc1ncc(Br)c(Nc2ccc3nccnc3c2P(C)(C)=O)n1 [compound 21]	1.57	4.03	63.9	18.1	0.06
COc1cc(N2CCOCC2)c(-c2cnn(C)c2)cc1Nc1nccc(Nc2ccc3nccnc3c2P(C)(C)=O)n1 [Compound 42, (6-((2-((2-methoxy-5-(1-methyl-1H-pyrazol-4-yl)-4-morpholinophenyl)amino)pyrimidin-4-yl)amino)quinoxalin-5-yl)dimethylphosphine oxide]	166	6.76	≥ 5000	69.2	1.24
CCN1CCN(c2cc(OC)c(Nc3ncc(Br)c(Nc4ccc5nccnc5c4P(C)(C)=O)n3)cc2-c2cnn(C)c2)CC1 [compound 89]	2.11	2.33	40.9	4.16	0.11
COc1cc(C2CCOCC2)c(-c2cnn(C)c2)cc1Nc1ncc(Br)c(Nc2ccc3nccnc3c2P(C)(C)=O)n1 [Compound 69]	17.4	5.91	303	19.2	0.17
COc1cc(N2CCN(C(C)=O)CC2)c(-c2cnn(C)c2)cc1Nc1ncc(Br)c(Nc2ccc3nccnc3c2P(C)(C)=O)n1 [compound 14]	1.06	5.98	150	13.6	0.15
COc1cc(N2CCC3(CC2)COCCN3C)c(-c2cnn(C)c2)cc1Nc1ncc(Br)c(Nc2cc3c(cc2N(C)S(C)(=O)=O)CC3)n1 [compound 208]	5.79	9.45	348	14.6	0.57
COc1cc(N2C[C@H]3C[C@@H]2CO3)c(-c2cnn(C)c2)cc1Nc1ncc(Br)c(Nc2ccc3nccnc3c2P(C)(C)=O)n1 [compound 114]	5.41	5.86	271	11.2	0.56
[2H]C1([2H])OC([2H])([2H])C([2H])([2H])N(c2cc(OC)c(Nc3ncc(C)c(Nc4ccc5nccnc5c4P(C)(C)=O)n3)cc2-c2cnn(C)c2)C1([2H])[2H] [compound 141]	1.14	2.26	194	5.16	0.18
COc1cc(N2CCOCC2)c(-c2cnn(C)c2)cc1Nc1ncc(Br)c(Nc2cc3c(cc2P(C)(C)=O)CC3)n1 [Compound 79, (4-((5-bromo-2-((2-methoxy-5-(1-methyl-1H-pyrazol-4-yl)-4-morpholinylphenyl)amino)pyrimidin-4-yl)amino)bicyclo[4.2.0]octa-1,3,5-trien-3-yl)dimethylphosphine oxide]	29.9	9.89	633	13.5	0.45
COc1c(Nc2ncc(Br)c(Nc3ccc4nccnc4c3P(C)(C)=O)n2)cc(-c2cnn(C)c2)c(N2CCOCC2)c1F [compound 23]	40.3	8.67	195	30.3	1.92
